Measured values published in patent publication US8637523B2, “Compounds for the reduction of beta-amyloid production” (Bristol-Myers Squibb Company, priority 2010, dated 2014).
pIC50: −log10 of the molar value.

tested on: Aβ42; test: Cellular assay for inhibition of Aβ1-42 production (H4 APP751 SWE clone 8.20); format: cell-based; settings: 19 h, H4 APP751 SWE clone 8.20 cells, 19 h incubation; read-out: Activity Rating (Aβ42 cellular IC50), class symbol
Procedure: Cellular Assays for Inhibition of Aβ1-40 and Aβ1-42 Production
H4 cells stably transfected with APP751 containing the Swedish mutation (H4 APP751 SWE clone 8.20, developed at BMS) were maintained in log phase through twice weekly passage at a 1:20 split. […] Following incubation for 19 h in 5% CO2 at 37° C., plates were briefly centrifuged (1000 rpm, 5 min). A 10 μl aliquot from each well was transferred to a second assay plate (Costar 3709) for Aβ40 measurements. Antibody cocktails were freshly prepared by dilution into 40 mM Tris-HCl (pH 7.4) with 0.2% BSA and added to assay plates. For Aβ42 measurements, antibodies specific for the Aβ42 neoepitope (565, developed at BMS; conjugated to the Wallac reagent (Perkin Elmer)) and the N-terminal sequence of Aβ peptide (26D6, developed at SIBIA; conjugated to APC (Perkin Elmer)) were mixed and 20 μl of the mixture was added to each well of the incubated cell plate yielding a final concentration of 0.8 ng/well 565 and 75 ng/well 26D6. For the Aβ40 measurements, antibodies specific for the Aβ40 neoepitope (TSD, developed at BMS; conjugated to the Wallac reagent (Perkin Elmer)) and 26D6 as described above were mixed and 20 μl of the mixture was added to the 10 μl aliquots which had been removed previously from the cell plate yielding a final concentration of 1.6 ng/well TSD and 17.5 ng/well 26D6. Assay plates containing antibodies were sealed with aluminum foil and incubated overnight at 4° C. Signal was determined using a Viewlux counter (Perkin Elmer) and IC50 values determined using curve fitting in CurveMaster (Excel Fit based).

| pIC50 | Compound |
| --- | --- |
| 7.00 to 8.00 | Clc1cn(-c2ccc3cc2OC/C=C/CCNc2nc(nc4c2CCC4c2ccccc2)N3)cn1 (stereo not drawn) [Example 5B, (11E)-7-(4-chloro-1H-imidazol-1-yl)-19-phenyl-3,10,13,14,15,17,18,19-octahydro-2,16-(azeno)-8,4-(metheno)cyclopenta[j][1,7,9,13]oxatriazacyclooctadecine] |
| 7.00 to 8.00 | Cc1ncn(-c2ccc3cc2OCCN(C)CCNc2nc(nc4c2CCC4c2ccc(F)cc2)N3)n1 (stereo not drawn) [Example 56B, 19-(4-fluorophenyl)-12-methyl-7-(3-methyl-1H-1,2,4-triazol-1-yl)-11,12,13,14,15,17,18,19-octahydro-10H-16,2-(azeno)-8,4-(metheno)cyclopenta[i][1,4,7,11,13]oxatetraazacyclooctadecine] |
| > 8.00 | Cc1ncn(-c2ccc3cc2OCCCCCc2nc(nc4c2CCC4c2ccccc2)N3)n1 (stereo not drawn) [Example 62A, 7-(3-methyl-1H-1,2,4-triazol-1-yl)-18-phenyl-10,11,12,13,14,16,17,18-octahydro-15,2-(azeno)-8,4-(metheno)cyclopenta[h][1,10,12]oxadiazacycloheptadecine] |
| > 8.00 | CN1CCCCOc2cc(ccc2-n2cnc(Cl)c2)Nc2nc3c(c1n2)CCC3c1ccccc1 (stereo not drawn) [Example 13A, 7-(4-chloro-1H-imidazol-1-yl)-14-methyl-18-phenyl-10,11,12,13,14,16,17,18-octahydro-15,2-(azeno)-8,4-(metheno)cyclopenta[h][1,6,10,12]oxatriazacycloheptadecine] |
| > 8.00 | Cc1ncn(-c2ccc3cc2OC/C=C\CN(C)c2nc(nc4c2CCC4c2ccccc2)N3)n1 (stereo not drawn) [Example 44A, (11Z)-14-methyl-7-(3-methyl-1H-1,2,4-triazol-1-yl)-18-phenyl-10,13,14,16,17,18-hexahydro-15,2-(azeno)-8,4-(metheno)cyclopenta[h][1,6,10,12]oxatriazacycloheptadecine] |

same assay, conditions: 19 h, H4 APP751 SWE clone 8.20 cells, 19 h incubation; unit inferred; read-out: Activity Rating (Aβ42 cellular IC50), numeric value

| pIC50 | Compound |
| --- | --- |
| 8.42 | Clc1cn(-c2ccc3cc2OCCCCCNc2nc(nc4c2CCC4c2ccccc2)N3)cn1 (stereo not drawn) [Example 11A, 7-(4-chloro-1H-imidazol-1-yl)-19-phenyl-3,10,11,12,13,14,15,17,18,19-decahydro-2,16-(azeno)-8,4-(metheno)cyclopenta[f][1,7,9,13]oxatriazacyclooctadecine] |
| 7.33 | CN1C/C=C\COc2cc(ccc2-n2cnc(Cl)c2)Nc2nc3c(c1n2)CCC3c1ccc(F)cc1F (stereo not drawn) [Example 18B, (11Z)-7-(4-chloro-1H-imidazol-1-yl)-18-(2,4-difluorophenyl)-14-methyl-10,13,14,16,17,18-hexahydro-15,2-(azeno)-8,4-(metheno)cyclopenta[h][1,6,10,12]oxatriazacycloheptadecine] |

same assay, conditions: H4 APP751 SWE clone 8.20 cells, 19 h incubation; read-out: Activity Rating (Aβ42 cellular IC50), class symbol

| Compound | pIC50 |
| --- | --- |
| N#Cc1ccc2cc1OCCNCCNc1nc(nc3c1CCC3c1ccc(F)cc1)N2 (single isomer, unassigned) [Example 26A, 7-cyano-19-(4-fluorophenyl)-11,12,13,14,15,17,18,19-octahydro-10H-16,2-(azeno)-8,4-(metheno)cyclopenta[i][1,4,7,11,13]oxatetraazacyclooctadecine] | 7.00 to 8.00 |
| Cc1ncnn1-c1ccc2cc1OCC=CCNc1nc(nc3c1CCC3c1ccccc1)N2 (stereo not drawn) [Example 42B, (11Z)-7-(5-methyl-1H-1,2,4-triazol-1-yl)-18-phenyl-10,13,14,16,17,18-hexahydro-15,2-(azeno)-8,4-(metheno)cyclopenta[h][1,6,10,12]oxatriazacycloheptadecine] | 7.00 to 8.00 |
| Clc1cn(-c2ccc3cc2OCC=CCCc2nc(nc4c2CCC4c2ccccc2)N3)cn1 (stereo not drawn) [Example 17B, (11E)-7-(4-chloro-1H-imidazol-1-yl)-18-phenyl-10,13,14,16,17,18-hexahydro-15,2-(azeno)-8,4-(metheno)cyclopenta[h][1,10,12]oxadiazacycloheptadecine] | 7.00 to 8.00 |
| Fc1ccc(C2CCc3c4nc(nc32)Nc2ccc(-n3cnc(Cl)c3)c(c2)OCC=CCN4)c(F)c1 (stereo not drawn) [Example 14A, (11Z)-7-(4-chloro-1H-imidazol-1-yl)-18-(2,4-difluorophenyl)-10,13,14,16,17,18-hexahydro-15,2-(azeno)-8,4-(metheno)cyclopenta[h][1,6,10,12]oxatriazacycloheptadecine] | > 8.00 |
| Fc1ccc(C2CCc3c4nc(nc32)Nc2ccc(-n3cnc(Cl)c3)c(c2)OCC=CCN4)c(F)c1 (stereo not drawn) [Example 14B, (11Z)-7-(4-chloro-1H-imidazol-1-yl)-18-(2,4-difluorophenyl)-10,13,14,16,17,18-hexahydro-15,2-(azeno)-8,4-(metheno)cyclopenta[h][1,6,10,12]oxatriazacycloheptadecine] | 7.00 to 8.00 |
| CN1CC=CCOc2cc(ccc2-n2cnc(Cl)c2)Nc2nc3c(c1n2)CCC3c1ccccc1 (stereo not drawn) [Example 3A, (11Z)-7-(4-chloro-1H-imidazol-1-yl)-14-methyl-18-phenyl-10,13,14,16,17,18-hexahydro-15,2-(azeno)-8,4-(metheno)cyclopenta[h][1,6,10,12]oxatriazacycloheptadecine] | > 8.00 |
| Cc1ncn(-c2ccc3cc2OC/C=C\CNc2nc(nc4c2CCC4c2ccc(F)cc2)N3)n1 (stereo not drawn) [Example 45B, (11Z)-18-(4-fluorophenyl)-7-(3-methyl-1H-1,2,4-triazol-1-yl)-10,13,14,16,17,18-hexahydro-15,2-(azeno)-8,4-(metheno)cyclopenta[h][1,6,10,12]oxatriazacycloheptadecine] | 7.00 to 8.00 |

Other lines, results leading:

| pIC50 | Compound |
| --- | --- |
| > 8.00 | Cc1ncn(-c2ccc3cc2OCC(O)CCNc2nc(nc4c2CCC4c2ccc(F)cc2)N3)n1 (single isomer, unassigned) [Example 72A, 18-(4-fluorophenyl)-7-(3-methyl-1H-1,2,4-triazol-1-yl)-10,11,12,13,14,16,17,18-octahydro-15,2-(azeno)-8,4-(metheno)cyclopenta[h][1,6,10,12]oxatriazacycloheptadecin-11(3H)-ol] |
| 7.00 to 8.00 | (11Z)-18-(2,4-difluorophenyl)-7-(3-methyl-1H-1,2,4-triazol-1-yl)-10,13,14,16,17,18-hexahydro-15,2-(azeno)-8,4-(metheno)cyclopenta[h][1,6,10,12]oxatriazacycloheptadecine [Example 51B] |
| > 8.00 | Cc1ncn(-c2ccc3cc2OCC(O)CCNc2nc(nc4c2CCC4c2ccc(F)cc2)N3)n1 (single isomer, unassigned) [Example 72D, 18-(4-fluorophenyl)-7-(3-methyl-1H-1,2,4-triazol-1-yl)-10,11,12,13,14,16,17,18-octahydro-15,2-(azeno)-8,4-(metheno)cyclopenta[h][1,6,10,12]oxatriazacycloheptadecin-11(3H)-ol] |
| > 8.00 | (11Z)-7-(3-methyl-1H-1,2,4-triazol-1-yl)-18-phenyl-10,13,14,16,17,18-hexahydro-15,2-(azeno)-8,4-(metheno)cyclopenta[h][1,10,12]oxadiazacycloheptadecine [Example 58A] |
| > 8.00 | (11Z)-18-(2,4-difluorophenyl)-7-(5-methyl-1H-1,2,4-triazol-1-yl)-10,13,14,16,17,18-hexahydro-15,2-(azeno)-8,4-(metheno)cyclopenta[h][1,6,10,12]oxatriazacycloheptadecine [Example 53A] |
| 7.00 to 8.00 | Cc1ncn(-c2ccc3cc2OCCCCNc2nc(nc4c2CN(C)CC4c2ccc(F)cc2)N3)n1 (racemic) [Example 70A, 19-(4-fluorophenyl)-17-methyl-7-(3-methyl-1H-1,2,4-triazol-1-yl)-11,12,13,14,16,17,18,19-octahydro-10H-15,2-(azeno)-8,4-(metheno)pyrido[3,4-h][1,6,10,12]oxatriazacycloheptadecine] |

same assay, conditions: H4 APP751 SWE clone 8.20 cells, 19 h incubation; unit inferred; read-out: Activity Rating (Aβ42 cellular IC50), numeric value

| pIC50 | Compound |
| --- | --- |
| 7.68 | CN1CCCCOc2cc(ccc2C#N)Nc2nc3c(c1n2)CCC3c1ccccc1 (single isomer, unassigned) [Example 34A, 7-cyano-14-methyl-18-phenyl-10,11,12,13,14,16,17,18-octahydro-15,2-(azeno)-8,4-(metheno)cyclopenta[h][1,6,10,12]oxatriazacycloheptadecine] |
| 6.92 | CC1(c2ccc(F)cc2)CCc2c3nc(nc21)Nc1ccc(C#N)c(c1)OC/C=C\CN3 (stereo not drawn) [Example 69, (11Z)-7-cyano-18-(4-fluorophenyl)-18-methyl-10,13,14,16,17,18-hexahydro-15,2-(azeno)-8,4-(metheno)cyclopenta[h][1,6,10,12]oxatriazacycloheptadecine] |
| 7.82 | (11E)-7-(4-chloro-1H-imidazol-1-yl)-18-phenyl-10,13,14,16,17,18-hexahydro-15,2-(azeno)-8,4-(metheno)cyclopenta[h][1,6,10,12]oxatriazacycloheptadecine [Example 2B] |
| 7.60 | (11E)-7-(3-methyl-1H-1,2,4-triazol-1-yl)-18-phenyl-10,13,14,16,17,18-hexahydro-15,2-(azeno)-8,4-(metheno)cyclopenta[h][1,6,10,12]oxatriazacycloheptadecine [Example 40B] |
